The values that follow are results of earlier work, collected in patent US20030175349A1, “Pharmaceutical compostion for extended/sustained release of a therapeutically active ingredient” (COUNCIL OF SCIENTIFIC AND INDUSTRIAL RESEARCH, priority 2002, published 2003).

As to `CC(=O)OCC(COC(C)=O)OC(C)=O` [triacetin], the “parts of water in which 1 part is soluble” value (at 20° C.) is given as 14 parts of water. Consider `CC(=O)Oc1ccccc1C(=O)O` [Aspirin, aspirin], for which the “solubility in water (in words)” value is listed as “slightly soluble in water”.

`Cc1ccc(S(=O)(=O)NC(=O)NN2CC3CCCC3C2)cc1` (stereo not drawn) [Gliclazide, gliclazide]: the “solubility in water (in words)” value is given as “practically insoluble in water”.
